The values below come from US8129424B2, “Indole derivatives as histamine 3 receptor inhibitors for the treatment of cognitive and sleep disorders, obesity and other CNS disorders” (Athersys, Inc., priority 2005, dated 2012).

The target in this test is T1, human histamine H3 receptor (Homo sapiens, UniProt Q9Y5N1).
T1 construct: expressed in transfected cells; host or cells: HT1080-Gqαi5 cells (human), pFG8-HH3 RAGE vector integrated; methotrexate-amplified clone RAGE-H3
T1 sequence (Q9Y5N1 whole entry): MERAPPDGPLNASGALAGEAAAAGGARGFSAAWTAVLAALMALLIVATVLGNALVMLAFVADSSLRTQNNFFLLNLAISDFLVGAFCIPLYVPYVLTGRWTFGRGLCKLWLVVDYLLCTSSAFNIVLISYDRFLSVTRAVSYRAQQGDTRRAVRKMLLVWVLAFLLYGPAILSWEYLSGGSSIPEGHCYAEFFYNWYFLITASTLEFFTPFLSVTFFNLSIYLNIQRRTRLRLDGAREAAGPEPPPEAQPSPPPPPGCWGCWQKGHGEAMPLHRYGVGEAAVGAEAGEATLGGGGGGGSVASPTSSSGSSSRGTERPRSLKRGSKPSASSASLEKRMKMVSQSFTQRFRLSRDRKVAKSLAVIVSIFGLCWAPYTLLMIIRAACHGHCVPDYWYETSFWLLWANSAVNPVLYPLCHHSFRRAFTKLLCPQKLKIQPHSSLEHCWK
Description: Radioligand competition binding assay with [125I]iodoproxyfan on RAGE-H3 cell membranes. Conditions: [125I]iodoproxyfan competition binding, apparent Ki by Cheng-Prussof equation. As to the method:
Representative compounds of the present invention that were prepared by the procedures of Examples 1-41 were evaluated in binding assays against cells expressing human H3 receptor by the following procedure.
The human histamine H3 receptor was stably expressed in HT1080 cells containing the chimeric G-protein, Gq[…]i5 (Coward et al., Anal Biochem 1999; 270:242-8). HT1080-Gqαi5 cells were grown in alpha-modified MEM containing 10% fetal bovine serum and 7 μg/ml blasticidin at 37° C. in 5% CO2/95% atmosphere. Cells (4.8×10^9) were irradiated with 50 rads from a ^137Cs source and the pFG8-HH3 RAGE (Random Activation of Gene Expression; see Harrington et al., Nature Biotechnology. 2001; 19:440-45) vector was subsequently integrated into the cells via electroporation (250V, 600 μF, 50Ω). The RAGE vector pFG8-HH3 contained cDNA sequence coding for the first exon (83 amino acids) of human H3 receptor. After electroporation, cells were plated in T75 flasks and grown in alpha-modified MEM. The culture medium was replaced 48 hours after electroporation with alpha-modified MEM, 10% fetal bovine serum, 500 μg/ml hygromycin B and 3 μg/ml puromycin. Medium was replaced every four days during cell expansion. To identify RAGE activated cells expressing the H3 receptor, pools of approximately 10,000 colonies (5×10^7-1.5×10^8 cells total) were screened by PCR for the desired gene product (using primers specific to the RAGE vector and exon 2 of the H3 receptor). […] Positive 100 cells/well pools were identified by PCR, confirmed by sequencing, and subsequently subcloned to 0.8 cells/well. Once clones expressing the H3 receptor were identified by PCR analysis, assays (FLIPR or radioligand binding) were performed to confirm that the activated gene produced functional protein. The protein expression in the initial clones obtained from the RAGE library was increased by growth in the presence of methotrexate. Since the integrated RAGE vector contains the DHFR gene, such treatment selects for cells that have amplified the genetic locus containing the RAGE insert. Subclones obtained after methotrexate amplification were tested for functional activity in FLIPR assays to identify the clone that was most suitable for HTS. The final HT1080-Gqαi5 RAGE clone (RAGE-H3) expressing the human histamine H3 receptor was grown in alpha-modified MEM containing 10% fetal bovine serum, 3 μg/ml puromycin, 500 μg/ml hygromycin B, 3.2 μM methotrexate at 37° C. in 5% CO2/95% atmosphere.
RAGE-H3 cells (10^9) were washed twice with cold PBS, scraped off the plates, and centrifuged at 1000×g for 5 minutes. Cells were resuspended in ice-cold 10 mM Tris HCl, pH 7.4, containing 5 mM EDTA and protease inhibitor cocktail tablets (Roche Molecular Biochemicals). After incubating on ice for 10 minutes, the cells were homogenized with a dounce homogenizer or a polytron tissue grinder, and centrifuged at 1000×g for 10 minutes at 4° C. The resulting supernatant was centrifuged at 32,000×g for 30 minutes at 4° C. The membrane pellets were resuspended in 50 mM Tris HCl, pH 7.4, and stored at −80° C. until use. Protein concentration was determined by the Bradford method (Bio-Rad Laboratories, CA).
Binding assays were carried out in 96-well polypropylene plates in 50 mM Tris HCl, pH 7.4, containing 1 mM EDTA. Reaction mixtures contained 100 μl of membrane suspension, 50 of 4% DMSO, and 50 μl of increasing amounts of [^125I]iodoproxyfan (final concentration 0.0005-1.8 nM for human H3 receptor saturation binding assay). Nonspecific binding was defined by adding 10 μM clobenpropit to the reaction mixtures. Competition binding assays were performed in a reaction mixture containing 100 μl of membrane suspension (˜20 μg of protein/well), 50 μl of [^125I]iodoproxyfan (final concentration of ˜0.15 nM) and 50 μl of test compound. Compounds were dissolved in DMSO and then diluted with 4% DMSO; the final maximal DMSO concentration in the binding assays was 1%. […]
In the case of `c1ccc2c(c1)cc(COC1CCCCC1)n2-c1ccc(OCCCN2CCCC2)cc1` [Example 33, 2-Cyclohexyloxymethyl-1-[4-(3-pyrrolidin-1-ylpropoxy)phenyl]-1H-indole], the Ki is less than 10 nM.
With `C[C@@H]1CCCN1CCCOc1ccc(-n2c(C(=O)NC3CCCCCC3)cc3ccccc32)cc1` [Example 22, 1-{4-[3-(2R-Methylpyrrolidin-1-yl)propoxy]phenyl}-1H-indole-2-carboxylic acid cycloheptylamide] the figure was less than 100 nM.
With `C[C@@H]1CCCN1CCCOc1ccc(-n2c(C(=O)N3CCCC3)cc3ccccc32)cc1` [Example 23, (1-{4-[3-(2R-Methylpyrrolidin-1-yl)propoxy]phenyl}-1H-indol-2-yl)pyrrolidin-1-ylmethanone] the figure was less than 10 nM.
`CCOC(=O)c1cc2ccccc2n1-c1ccc(OCCCN2CCCC2)cc1` [Example 30, 1-[4-(3-Pyrrolidin-1-ylpropoxy)phenyl]-1H-indole-2-carboxylic acid ethyl ester]: the Ki was less than 10 nM.
Next, `CCCCNC(=O)c1cc2ccccc2n1-c1ccc(OCCCN2CCC[C@H]2C)cc1` [Example 26, 1-{4-[3-(2R-Methylpyrrolidin-1-yl)propoxy]phenyl}-1H-indole-2-carboxylic acid butylamide]: less than 10 nM; `C[C@@H]1CCCN1CCCOc1ccc(-n2c(C(=O)NCC3CCCCC3)cc3ccccc32)cc1` [Example 28, 1-{4-[3-(2R-Methylpyrrolidin-1-yl)propoxy]phenyl}-1H-indole-2-carboxylic acid cyclohexylmethylamide]: less than 10 nM.
Consider `Cc1cc2ccccc2n1-c1ccc(OCCCN2CCC[C@H]2C)cc1` [Example 3, 2-Methyl-1-{4-[3-(2R-methylpyrrolidin-1-yl)propoxy]phenyl}-1H-indole], for which the Ki was less than 10 nM.
Turning to `COc1ccc2c(c1)cc(C(=O)NC1CCCCC1)n2-c1ccc(OCCCN2CCC[C@H]2C)cc1` [Example 29, 5-Methoxy-1-{4-[3-(2R-methylpyrrolidin-1-yl)propoxy]phenyl}-1H-indole-2-carboxylic acid cyclohexylamide], the Ki was less than 10 nM.
Regarding `COc1ccc2c(c1)cc(C(=O)N1CCCC1)n2-c1ccc(OCCCN2CCC[C@H]2C)cc1` [Example 18, (5-Methoxy-1-{4-[3-(2R-methylpyrrolidin-1-yl)propoxy]phenyl}-1H-indol-2-yl)pyrrolidin-1-ylmethanone], the Ki is less than 10 nM.
With `OCc1cc2ccccc2n1-c1ccc(OCCCN2CCCC2)cc1` [Example 31, {1-[4-(3-Pyrrolidin-1-ylpropoxy)phenyl]-1H-indol-2-yl}methanol], the Ki is less than 10 nM.
`OCCc1cc2ccccc2n1-c1ccc(OCCCN2CCCC2)cc1` [Example 41, 2-{1-[4-(3-Pyrrolidin-1-ylpropoxy)phenyl]-1H-indol-2-yl}ethanol]: the Ki was less than 10 nM.
With `c1ccc2c(c1)cc(COC1CCCC1)n2-c1ccc(OCCCN2CCCC2)cc1` [Example 35, 2-Cyclopentyloxymethyl-1-[4-(3-pyrrolidin-1-ylpropoxy)phenyl]-1H-indole], the Ki is less than 10 nM.
With `CC(C)OCc1cc2ccccc2n1-c1ccc(OCCCN2CCCC2)cc1` [Example 34, 2-Isopropoxymethyl-1-[4-(3-pyrrolidin-1-ylpropoxy)phenyl]-1H-indole] the figure was less than 10 nM; with `c1ccc2c(c1)cc(C1CC1)n2C1CCC(OCCCN2CCCC2)CC1` (single isomer, unassigned) [Example 39, 2-Cyclopropyl-1-[4-(3-pyrrolidin-1-ylpropoxy)cyclohexyl]-1H-indole], less than 10 nM.
Next, `Cc1cc2cc(F)ccc2n1-c1ccc(OCCCN2CCCC2)cc1` [Example 13, 2-Methyl-5-fluoro-1-[4-(3-pyrrolidin-1-ylpropoxy)phenyl]-1H-indole]: less than 10 nM; `CC(C)CNC(=O)c1cc2ccccc2n1-c1ccc(OCCCN2CCC[C@H]2C)cc1` [Example 27, 1-{4-[3-(2R-Methylpyrrolidin-1-yl)propoxy]phenyl}-1H-indole-2-carboxylic acid isobutylamide]: less than 10 nM.
Next, `Clc1ccc2ccn(-c3ccc(OCCCN4CCCC4)cc3)c2c1` [Example 12, 6-Chloro-1-[4-(3-pyrrolidin-1-ylpropoxy)phenyl]-1H-indole]: less than 100 nM; `Cc1ccc2c(c1)cc(C)n2-c1ccc(OCCCN2CCCC2)cc1` [Example 11, 2,5-Dimethyl-1-[4-(3-pyrrolidin-1-ylpropoxy)phenyl]-1H-indole]: less than 100 nM; `C[C@@H]1CCCN1CCCOc1ccc(-n2c(C(=O)NC3CCC3)cc3ccccc32)cc1` [Example 19, 1-{4-[3-(2R-Methylpyrrolidin-1-yl)propoxy]phenyl}-1H-indole-2-carboxylic acid cyclobutylamide]: less than 10 nM.
Turning to `Cc1cc2ccccc2n1-c1ccc(OCCCN2CCCC2)cc1` [Example 1, 2-Methyl-1-[4-(3-pyrrolidin-1-ylpropoxy)phenyl]-1H-indole], the Ki is less than 10 nM.
With `Cc1cc2ccccc2n1-c1ccc(OCCCN2CCCCC2)cc1` [Example 2, 2-Methyl-1-[4-(3-piperidin-1-ylpropoxy)phenyl]-1H-indole], the Ki was less than 10 nM.
With `C[C@@H]1CCCN1CCCOc1ccc(-n2c(C(=O)N3CCOCC3)cc3ccccc32)cc1` [Example 25, (1-{4-[3-(2R-Methylpyrrolidin-1-yl)propoxy]phenyl}-1H-indol-2-yl)morpholin-4-ylmethanone] the figure was less than 10 nM; with `CCCc1cc2ccccc2n1-c1ccc(OCCCN2CCCC2)cc1` [Example 38, 2-Propyl-1-[4-(3-pyrrolidin-1-ylpropoxy)phenyl]-1H-indole], less than 10 nM.
Consider `C[C@@H]1CCCN1CCCOc1ccc(-n2c(C(=O)N3CCCCC3)cc3ccccc32)cc1` [Example 24, (1-{4-[3-(2R-Methylpyrrolidin-1-yl)propoxy]phenyl}-1H-indol-2-yl)piperidin-1-ylmethanone], for which the Ki is less than 10 nM.
As for `COCc1cc2cc(C)ccc2n1-c1ccc(OCCCN2CCCC2)cc1` [Example 43, 5-Methyl-2-methoxymethyl-1-[4-(3-pyrrolidin-1-ylpropoxy)phenyl]-1H-indole], the Ki was less than 10 nM.
With `C[C@@H]1CCCN1CCCOc1ccc(-n2c(C(=O)NC3CCCCC3)cc3ccccc32)cc1` [Example 21, 1-{4-[3-(2R-Methylpyrrolidin-1-yl)propoxy]phenyl}-1H-indole-2-carboxylic acid cyclohexylamide], the Ki is less than 100 nM.
With `COc1ccc2c(c1)cc(CO)n2-c1ccc(OCCCN2CCCC2)cc1` [Example 36, {5-Methoxy-1-[4-(3-pyrrolidin-1-ylpropoxy)phenyl]-1H-indol-2-yl}methanol] the figure was less than 10 nM; with `C[C@@H]1CCCN1CCCOc1ccc(-n2c(C(=O)NC3CCCC3)cc3ccccc32)cc1` [Example 20, 1-{4-[3-(2R-Methylpyrrolidin-1-yl)propoxy]phenyl}-1H-indole-2-carboxylic acid cyclopentylamide], less than 10 nM; with `COCc1cc2cc(F)ccc2n1-c1ccc(OCCCN2CCCC2)cc1` [Example 44, 5-Fluoro-2-methoxymethyl-1-[4-(3-pyrrolidin-1-ylpropoxy)phenyl]-1H-indole], less than 10 nM.
Turning to `COCc1cc2ccccc2n1-c1ccc(OCCCN2CCCC2)cc1` [Example 32, 2-Methoxymethyl-1-[4-(3-pyrrolidin-1-ylpropoxy)phenyl]-1H-indole], the Ki is less than 10 nM.
